Data: patent US20240277713A1 (Kadmon Corporation, LLC, priority 2022, published 2024)
Marks after values point to notes of the source that are not given here.

System: New Zealand White rabbits
Assay: Embryo-fetal developmental toxicity study in New Zealand White rabbits (Example 4);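 note: dams given a detailed clinical exam daily GD 6 to 29, about 4 h after dosing, then laparohysterectomy on GD 29 with external, visceral and skeletal fetal examination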

## CC(C)NC(=O)COc1cccc(-c2nc(Nc3ccc4[nH]ncc4c3)c3ccccc3n2)c1 [belumosudil, 2-{3-[4-(1H-indazol-5-ylamino)-2-quinazolinyl]phenoxy}-N-(propan-2-yl) acetamide]
125 mg base/kg/day, GD 0-29
  Hair sparse, Forefoot/right, times observed/animals affected: 0/0
  Hair sparse, Forelimb/left, times observed/animals affected: 4/1
  Hair sparse, Hind limb/left, times observed/animals affected: 0/0
  Hair sparse, Inguinal region/right, times observed/animals affected: 4/1
  Hair sparse, Shoulder/left, times observed/animals affected: 2/1
  Hair sparse, Thoracic region, times observed/animals affected: 2/1
  Hair sparse, Ventral surface, times observed/animals affected: 19/1
  Material in pan/bedding, Red, times observed/animals affected: 2/1
  Nail missing, Forefoot/left, times observed/animals affected: 0/0
  Scabbed area, Ear/left, times observed/animals affected: 0/0
  Scabbed area, Nose/muzzle, times observed/animals affected: 0/0
  Skin discolored, Pale, Entire body, times observed/animals affected: 0/0
  Swelling, Nose/muzzle, times observed/animals affected: 0/0
  Swelling, Vulva, times observed/animals affected: 0/0
  Thin, times observed/animals affected: 0/0
225 mg base/kg/day
  Fetal Body Weight Genders Combined, % Difference From Control: −5.76%
  Fetal External Malformation: Short Tail, No. Fetuses (incidence): 5 (3.2)
  Fetal External Malformation: Short Tail, No. Litters (incidence): 2 (10.5)
  Fetal External Malformations, No. Fetuses (incidence): 5 (3.2)
  Fetal External Malformations, No. Litters (incidence): 2 (10.5)
  Fetal Skeletal Malformations, No. Fetuses (incidence): 19 (12.2)
  Fetal Skeletal Malformations, No. Litters (incidence): 10 (52.6)
  Fetal Visceral Variations, No. Fetuses (incidence): 12 (7.7)
  Fetal Visceral Variations, No. Litters (incidence): 8 (42.1)
  Maternal Body Weight Change GD 0-29, % Difference From Control: −24.2%
  Maternal Body Weight GD 10, % Difference From Control: −6.3%
  Maternal Body Weight GD 13, % Difference From Control: −8.0%
  Maternal Body Weight GD 16, % Difference From Control: −9.2%
  Maternal Body Weight GD 19, % Difference From Control: −8.4%
  Maternal Body Weight GD 21, % Difference From Control: −6.7%
  Maternal Food Consumption GD 0-29: 119.80
  Maternal Food Consumption GD 0-29, % Difference From Control: −17.8%
  Maternal Food Consumption GD 6-10: 61.2^b
  Maternal Food Consumption GD 6-19: 78.70
  Maternal Food Consumption GD 6-19, % Difference From Control: −49.7%
  Maternal Food Consumption GD 19-29: 155.3^b
  Mean Fetal Body Weight Females: 38.94 g
  Mean Fetal Body Weight Genders Combined: 38.60 g
  Mean Fetal Body Weight Males: 38.92 g
  Mean Live Litter Size: 7.4
  Mean Number of Early Resorptions: 1.4^a
  Mean Number of Resorptions (Combined): 1.5^a
  Mean Postimplantation Loss: 17.72 %/Litter
  Number Litters with Viable Fetuses GD29: 19
  Number with All Resorptions GD29: 2
  cervical vertebra(e) centra, hemicentra, fetal incidence: 2.6%
  cervical vertebra(e) centra, hemicentra, litter incidence: 21.1%
  neural arches (thoracic) fused, fetal incidence: 1.9%
  neural arches (thoracic) fused, litter incidence: 10.5%
  neural arches (thoracic) misaligned, fetal incidence: 1.3%
  neural arches (thoracic) misaligned, litter incidence: 10.5%
  neural arches (thoracic) misshapen, fetal incidence: 2.6%
  neural arches (thoracic) misshapen, litter incidence: 21.1%
  rib(s) branched, fetal incidence: 2.6%
  rib(s) branched, litter incidence: 21.2%
  rib(s) fused, fetal incidence: 2.6%
  rib(s) fused, litter incidence: 15.8%
  rib(s) misshapen, fetal incidence: 1.9%
  rib(s) misshapen, litter incidence: 15.8%
  short tail (entire), fetal incidence: 3.2%
  short tail (entire), litter incidence: 10.5%
  sternebra(e) extra, fetal incidence: 4.5%
  sternebra(e) extra, litter incidence: 21.1%
  sternebra(e) fused, fetal incidence: 4.5%
  sternebra(e) fused, litter incidence: 31.6%
  tail bent (entire), fetal incidence: 1.3%
  tail bent (entire), litter incidence: 5.3%
  ureter malpositioned, litter incidence: 26.3%
225 mg base/kg/day, 23 females
  Number Aborted: 1
  Number Died: 1
  Number Litters with Viable Fetuses GD29: 19
  Number Not Pregnant: 0
  Number with All Resorptions GD29: 2
225 mg base/kg/day, GD 0-29
  Activity decreased, times observed/animals affected: 4/1
  Feces few/absent, times observed/animals affected: 0/0
  Hair discolored, Brown, Anogenital region, times observed/animals affected: 0/0
  Hair discolored, Brown, Ear/left, times observed/animals affected: 0/0
  Hair discolored, Brown, Ear/right, times observed/animals affected: 0/0
  Hair discolored, Brown, Face, times observed/animals affected: 12/2
  Hair discolored, Brown, Hind limb/left, times observed/animals affected: 1/1
  Hair discolored, Red, Anogenital region, times observed/animals affected: 0/0
  Hair discolored, Red, Face, times observed/animals affected: 0/0
  Hair discolored, Red, Forelimb/left, times observed/animals affected: 0/0
  Hair discolored, Red, Thoracic region, times observed/animals affected: 0/0
  Hair discolored, Yellow, Ear/right, times observed/animals affected: 0/0
  Hair discolored, Yellow, Face, times observed/animals affected: 14/2
  Hair sparse, Anogenital region, times observed/animals affected: 0/0
  Hair sparse, Axillary region/left, times observed/animals affected: 3/1
  Hair sparse, Axillary region/right, times observed/animals affected: 2/1
  Hair sparse, Cervical region, times observed/animals affected: 0/0
  Hair sparse, Ear/left, times observed/animals affected: 0/0
  Hair sparse, Ear/right, times observed/animals affected: 0/0
  Hair sparse, Forefoot/left, times observed/animals affected: 3/1
  Hair sparse, Forefoot/right, times observed/animals affected: 5/2
  Hair sparse, Forelimb/left, times observed/animals affected: 0/0
  Hair sparse, Hind limb/left, times observed/animals affected: 8/1
  Hair sparse, Inguinal region/right, times observed/animals affected: 0/0
  Hair sparse, Shoulder/left, times observed/animals affected: 0/0
  Hair sparse, Thoracic region, times observed/animals affected: 1/1
  Hair sparse, Ventral surface, times observed/animals affected: 0/0
  Material in pan/bedding, Red, times observed/animals affected: 2/2
  Nail missing, Forefoot/left, times observed/animals affected: 0/0
  Scabbed area, Ear/left, times observed/animals affected: 0/0
  Scabbed area, Nose/muzzle, times observed/animals affected: 0/0
  Skin discolored, Pale, Entire body, times observed/animals affected: 11/1
  Swelling, Nose/muzzle, times observed/animals affected: 0/0
  Swelling, Vulva, times observed/animals affected: 2/1
  Thin, times observed/animals affected: 38/5
Pregnant rabbits
  NOAEL for maternal and developmental toxicity: 50 mg base/kg/day
Pregnant rabbits, oral
  doses at which embryo-fetal effects were observed (abortion, post-implantation loss, malformations, decreased fetal body weight): ≥ 50 mg/kg/day
Pregnant rabbits, oral, organogenesis
  doses at which maternal toxicity (body weight loss and mortality) was observed: ≥ 125 mg/kg/day
